In patent US6548634B1, “Synthetic peptides having FGF receptor affinity” (priority 1998, dated 2003):
Like-named read-outs stand apart in the source and are kept apart here. Where a SMILES comes first, the peptide text is derived from it. Where no end group is shown, it is not given here.

Columns and labels:
Swiss 3T3 fibroblasts = test: BrdU incorporation (mitogenesis) in Swiss 3T3 fibroblasts; assay type: cell-based; details: for mitogenic activity in Swiss 3T3: BrdU incorporation
Procedure: 6×Histidine-tagged Clone 19-jun protein (FIG. 1A) was expressed in bacteria and purified by metal affinity chromatography as described in Example 5. Assay of BrdU incorporation, a measure of entry of cells into S-phase and therefore of mitogenesis, was performed according to manufacturers instructions (Cell proliferation ELISA, BrdU, Cat. No. 1-647-229, Boehringer-Mannheim, Indianapolis, Ind.). Briefly, 1×10^4 Swiss 3T3 cells per well were plated on gelatin-coated 96-well microtiter plates in complete media (DMEM, 10% FCS, antibiotics), incubated 24 hours, and the media changed to quiescent media for an addition 24 hours (DMEM containing 0.5 mg/ml bovine serum albumin, 1 μg/ml insulin, 5 μg/ml transferrin, antibiotics). The cells were then treated with bFGF or Clone 19-jun protein at the indicated concentrations in the presence of 15 U/ml heparin. 18 hours later, BrdU was added, the cells incubated an additional 4 hours, and assayed as described. […] Heparin alone had no effect, nor did a control protein expressed and purified in the same manner in which the C19 sequence was deleted.

FGFR1c ECD = biological target: T1, FGFR1c ECD (Homo sapiens, UniProt P11362); test: BIAcore real-time kinetic analysis on immobilized FGFR1c ECD; assay type: binding; details: absence of heparin
T1 construct: human FGFR Ic (residues 1-377); made in house
T1 sequence (P11362 22-377): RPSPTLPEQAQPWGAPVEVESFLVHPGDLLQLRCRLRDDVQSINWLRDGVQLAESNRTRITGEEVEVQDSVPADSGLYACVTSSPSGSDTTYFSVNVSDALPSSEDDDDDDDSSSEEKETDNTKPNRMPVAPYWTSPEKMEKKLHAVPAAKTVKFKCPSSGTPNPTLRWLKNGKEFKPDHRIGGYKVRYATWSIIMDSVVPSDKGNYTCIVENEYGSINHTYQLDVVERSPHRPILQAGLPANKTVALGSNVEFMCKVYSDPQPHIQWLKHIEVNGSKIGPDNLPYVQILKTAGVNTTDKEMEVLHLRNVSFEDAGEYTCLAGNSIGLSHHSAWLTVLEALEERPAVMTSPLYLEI
Procedure: Apparent affinities for immobilized FGFR1c ECD were determined using BIAcore real-time kinetic analysis in the absence of heparin.
Protein representing the linker segments and c-jun leucine zipper without the C19 sequence (FIG. 2) was expressed, purified, and characterized as for C19jun. C19 peptide with an intrapeptide disulfide bond was synthesized, purified by HPLC, and characterized by mass spectroscopy. C19junΔhep protein was prepared by changing human c-jun residues Arg276, Arg279, Lys285, and Lys288 in the leucine zipper domain to glutamines. Expression, purification, and characterization was as for C19jun. […] The extracellular ligand-binding domain of human FGFR Ic (residues 1-377) and human erythropoietin receptor (residues 1-250) were fused to the Fc region of human IgG1, expressed in baculovirus and purified by protein A affinity chromatography. […] PDGF receptor Fc fusion protein was from R&D Systems.

FGFR = FGFR autophosphorylation in Swiss 3T3 cells (anti-FGFR IP, anti-phosphotyrosine blot); assay type: cell-based; details: 1.0 nM bFGF or 50 nM C19jun, 15 U/ml heparin, 15 minutes
Procedure: (§1) To determine whether C19jun could activate FGF receptors in vivo, Swiss 3T3 cells were treated with basic FGF (bFGF) or purified C19jun protein. Cell extracts were then immunoprecipitated with anti-FGFR antibodies, analyzed by SDS-PAGE and immunoblotted with anti-phosphotyrosine antibodies. Extracts from bFGF and C19jun-stimulated 293 cells expressing FGFR1c were also immunoblotted with phospho-MAP Kinase-specific antibodies.
(§2) Swiss 3T3 fibroblasts, or 293 cells expressing full-length FGFRIc were incubated in quiescing media (DMEM, 1 μg/ml insulin, 5 μg/ml transferrin, 0.5 mg/ml BSA) for 24-48 hrs, and then stimulated with 1.0 nM bFGF or 50 nM refolded C19jun protein in the presence of 15 U/ml heparin for 15 minutes at 37° C. The cells were lysed and aliquots of lysate containing equal amounts of total protein were either analyzed directly by immunoblotting with phospho-MAPKspecific antibodies and anti-total MAPK antisera (New England Biolabs) or immunoprecipitated with anti-FGFR antisera and immunoblotted with anti-phosphotyrosine antibodies (Upstate Biotechnology, Inc.). Both bFGF and C19jun induced FGFR autophosphorylation and MAP kinase phosphorylation.

[1] = test system: 293 cells expressing full-length FGFR1c; test: MAP kinase phosphorylation in 293 cells expressing FGFR1c; assay type: cell-based; details: 1.0 nM bFGF or 50 nM C19jun, 15 U/ml heparin, 15 minutes
Procedure: as §1, §2

PC12 cells = test: PC12 cell neurite outgrowth; assay type: cell-based; details: 1 nM bFGF or 2 nM C19-jun, 15 U/ml heparin, 4 days
Procedure: 1×10^4 PC12 cells per well were plated on mouse laminin-and-poly-L-lysine-coated 24-well plates in 1 ml of media (RPMI 1640, 10% horse serum, 5% FCS, antibiotics) and stimulated with 1 nM bFGF or 2 nM C19-jun protein in the presence of 15 U/ml heparin for 4 days.

[2] = test system: L6 myoblast cell lines stably expressing FGFR1c; test: c-fos mRNA expression in L6 myoblasts stably expressing FGFR1c; assay type: cell-based
control L6 cells = test: c-fos mRNA expression in control L6 cells that do not express FGFR; assay type: cell-based
[3] = biological target: T2, FGFR1c extracellular domain-IgG fusion protein (Homo sapiens, UniProt P11362); test: Eu-labeled FGFR-IgG displacement from immobilized phagemid; assay type: binding; details: phage-displayed peptide, FIG. 7, read-out: IC50, displacement of Europium-labeled FGFR-IgG by unlabeled FGFR-IgG
T2 construct: human FGFR Ic (residues 1-377); made in house
T2 sequence (P11362 22-377): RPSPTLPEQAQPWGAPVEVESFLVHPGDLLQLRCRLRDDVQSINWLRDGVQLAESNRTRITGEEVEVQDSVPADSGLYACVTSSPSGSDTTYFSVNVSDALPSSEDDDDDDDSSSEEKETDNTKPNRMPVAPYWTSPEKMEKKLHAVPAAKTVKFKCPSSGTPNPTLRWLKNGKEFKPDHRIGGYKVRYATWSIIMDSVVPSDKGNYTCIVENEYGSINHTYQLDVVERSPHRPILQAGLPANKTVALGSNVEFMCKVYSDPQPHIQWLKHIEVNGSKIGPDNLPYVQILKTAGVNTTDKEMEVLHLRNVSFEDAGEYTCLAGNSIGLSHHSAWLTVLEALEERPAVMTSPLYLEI
Procedure: The immobilization of phagemid using antibodies, followed by probing with selected ligand in an ELISA format has been reported previously (Valadon, P. & Scharff, M. D., 1996 J. Immunol. Methods 197, 171-179). We developed a more sensitive detection method using Europium chelate-conjugated target receptor.
Nunc Maxisorp 96-well plates were coated with […] anti-M13 antibody in […] 50 mM Na2CO3 pH 9.6 and blocked using the conditions described in Example 2. Phagemid (˜10^11 cfu) were applied to wells in binding buffer for 1 h and washed 6 times with PBS, 0.05% Tween 20, and 2 times with Delphia Wash Buffer (E&G Wallac). Serial dilutions of unlabeled FGFR-IgG were added along with a constant amount (500 pM−2.5 nM) of Europium-labeled FGFR-IgG in Delphia Assay Buffer (prepared according to instructions from E&G Wallac), and reactions allowed to incubate for 2 h. Wells were washed 8× in Delphia Wash Buffer, treated with 100 μL of Delphia Enhancer Solution and fluorescence measured. IC50 values were determined from four-parameter fits to displacement plots.

[4] = Binding to heparin agarose beads

## CC[C@H](C)[C@@H]1NC(=O)[C@H](CCCCN)NC(=O)[C@H]([C@@H](C)O)NC(=O)[C@H](Cc2c[nH]c3ccccc23)NC(=O)[C@H](C)NC(=O)[C@H](CO)NC(=O)[C@H](CC(=O)O)NC(=O)[C@H]([C@@H](C)O)NC(=O)[C@H](Cc2ccccc2)NC(=O)[C@H](C(C)C)NC(=O)[C@H](CC(C)C)NC(=O)[C@H](C(C)C)NC(=O)[C@@H](NC(=O)[C@H](Cc2ccc(O)cc2)NC(=O)[C@H](CC(=O)O)NC(=O)[C@H](CC(=O)O)NC(=O)CNC(=O)[C@H](CO)NC(=O)[C@H](CCC(=O)O)NC(=O)[C@H](C)N)CSSC[C@@H](C(=O)N[C@@H](CC(=O)O)C(=O)N[C@@H](Cc2c[nH]c3ccccc23)C(=O)N[C@@H](CO)C(=O)N[C@@H](Cc2c[nH]cn2)C(=O)N[C@@H](Cc2ccccc2)C(=O)N[C@@H](CCCNC(=N)N)C(=O)N[C@@H](CC(N)=O)C(=O)O)NC1=O [C19 synthetic peptide] (HELM PEPTIDE1{A.E.S.G.D.D.Y.C.V.L.V.F.T.D.S.A.W.T.K.I.C.D.W.S.H.F.R.N}$PEPTIDE1,PEPTIDE1,8:R3-21:R3$$$V2.0; N-terminus and C-terminus assumed)
Swiss 3T3 fibroblasts
  mitogenic activity in Swiss 3T3: did not induce mitogenesis even at high concentrations

## jun leucine zipper only: Protein representing the linker segments and c-jun leucine zipper without the C19 sequence (RIARLEEKVKTLKAQNSELASTANMLREQVAQLKQKVMN; not fully specified) [reference compound]
Swiss 3T3 fibroblasts; listed as Deletion of the C19 sequence from the fusion protein
  mitogenic activity in Swiss 3T3: abrogated mitogenic activity
Swiss 3T3 fibroblasts; listed as control protein
  mitogenic activity in Swiss 3T3: had no effect
FGFR1c ECD; BIAcore, approximate, read-out: KD, apparent affinity for immobilized FGFR1c ECD
  Kd: > 10 µM

## bFGF: basic fibroblast growth factor, natural FGF receptor ligand used as comparator [reference compound]
Swiss 3T3 fibroblasts; Swiss 3T3, 15 U/ml heparin, FIG. 3, read-out: EC50 stimulation of mitogenesis (BrdU incorporation)
  EC50: 0.14 nM
FGFR
  FGFR autophosphorylation: induced
[1]
  MAP kinase phosphorylation: induced
PC12 cells
  neurite outgrowth / PC12 cell differentiation: appearance of neurite extensions
[2]
  c-fos mRNA expression in FGFR-expressing L6 cells: stimulated c-fos mRNA expression
Control L6 cells
  c-fos mRNA expression in control L6 cells: neither was active

## TLVCDTVLEGQWRVCNWE [F12 clone]
[3]
  IC50: ~12 nM

B1: F12jun: F12 sequence fused to GGGS linker, c-jun leucine zipper flanked by cysteines, polyhistidine tag; SEQ ID NO:43 (protein)
chain: MATLVCDTVLEGQWRVCNWEGPGGGSGGGSGGGSGGGSGGGSRCGGRIARLEEKVKTLKAQNSELASTANMLREQVAQLKQKVMNGGCGGSGGHHHHHH
Swiss 3T3 fibroblasts; Swiss 3T3, 18 hrs, 15 U/ml heparin, FIG. 6, read-out: EC50 mitogenic activity (BrdU incorporation)
  EC50: ~1.7 nM

B2: C19junΔhep: C19jun with c-jun residues Arg276, Arg279, Lys285, Lys288 in the leucine zipper changed to glutamines (protein)
chain: MAESGDDYCVLVFTDSAWTKICDWSHFRNGPGGGSGGGSGGGSGGGSGGGSRCGGQIAQLEEKVQTLQAQNSELASTANMLREQVAQLKQKVMNHGGCGGSGGHHHHHH
Swiss 3T3 fibroblasts
  mitogenic activity in Swiss 3T3: inactive
FGFR1c ECD; in vitro
  binding to immobilized FGFR ECD: same apparent affinity as C19jun
[4]
  heparin binding: very low affinity for heparin
